Values after ≈ are worked out from the molar mass of the structure shown.
Experiments:
Amphibalanus amphitrite [1] = assay: Lethality against Balanus amphitrite cyprid larvae
Amphibalanus amphitrite [2] = assay: Antifouling activity against Balanus amphitrite assessed as inhibition of cyprid larval settlement; assay type: functional, organism-based

CC(C)=CC(O)C(O)[C@@H](C)[C@H]1CC[C@H]2[C@@H]3CC[C@H]4CC(=O)C=C[C@]4(C)[C@H]3CC[C@]12C (stereo partly drawn)
LD100 (Amphibalanus amphitrite [1]): 100 µg/mL

C=C[C@H]1CC[C@H]2[C@@H]3CCc4cc(O[C@@H]5O[C@@H](C)[C@@H](OC(C)=O)[C@@H](O)[C@@H]5O)ccc4[C@H]3CC[C@]12C
LD100 (Amphibalanus amphitrite [1]): 100 µg/mL

CC(=O)OC(CCC(C)C)[C@@H](C)[C@]12CC[C@@]3(O1)[C@@H]1CCC4=CC(=O)C=C[C@]4(C)[C@H]1C[C@H](OC(C)=O)[C@]3(C)O2 (stereo partly drawn) [ISOGOSTERONE D]
EC50 (Amphibalanus amphitrite [2]): 2.2 µg/mL (≈ 4.16 µM)

COC(=O)/C=C/[C@@H](C)[C@H]1CC[C@H]2[C@@H]3CCC4=CC(=O)C=C[C@]4(C)[C@H]3CC[C@]12C
LD100 (Amphibalanus amphitrite [1]): 100 µg/mL

CC(=O)OC(CCC(C)C)[C@@H](C)[C@]1(O)CC[C@@]2(O1)[C@@H]1CCC3=CC(=O)C=C[C@]3(C)[C@H]1C[C@H](OC(C)=O)[C@]2(C)O (stereo partly drawn) [ISOGOSTERONE C]
EC50 (Amphibalanus amphitrite [2]): 2.2 µg/mL (≈ 4.02 µM)

CC(=O)O[C@H]1C[C@H]2[C@@H](CCC3=CC(=O)C=C[C@@]32C)[C@]2(CC[C@@](O)([C@H](C)C(=O)CCC(C)C)O2)[C@@]1(C)O [ISOGOSTERONE B]
EC50 (Amphibalanus amphitrite [2]): 2.2 µg/mL (≈ 4.38 µM)

CC(=O)O[C@H]1C[C@H]2[C@@H](CCC3=CC(=O)C=C[C@@]32C)[C@]23CC[C@]([C@H](C)CCCC(C)C)(O[C@@]12C)O3 [ISOGOSTERONE A]
EC50 (Amphibalanus amphitrite [2]): 2.2 µg/mL (≈ 4.67 µM)

C=C[C@H]1CC[C@H]2[C@@H]3CCc4cc(OC)ccc4[C@H]3CC[C@]12C
LD100 (Amphibalanus amphitrite [1]): 100 µg/mL

Reference: ChEMBL document CHEMBL1144141, “Four new steroids from two octocorals” (J Nat Prod, 1999)
